Structures can show the parent of a compound that is named as a salt.
Each compound was assayed against PI3Kδ (p110δ/p85α) (Homo sapiens (Human), UniProt O00329) (assay: Example A3: PI3Kδ scintillation proximity assay). Conditions: scintillation proximity assay, 20 μM ATP, 4 nM PI3Kδ; read-out: PI3Kδ SPA IC50.
Format: biochemical
Outline: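 p110δ/p85α (4 nM) phosphorylated 20 μM PIP2 with 20 μM ATP plus [γ-33P]ATP in MOPS pH 6.7, MgCl2, DTT, CHAPS, 0.5% DMSO, at RT. Stopped with EDTA/excess ATP, product captured on WGA SPA beads overnight and counted; IC50 from percent control activity versus log inhibitor.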

Sequence of PI3Kδ (p110δ/p85α) (O00329 whole entry): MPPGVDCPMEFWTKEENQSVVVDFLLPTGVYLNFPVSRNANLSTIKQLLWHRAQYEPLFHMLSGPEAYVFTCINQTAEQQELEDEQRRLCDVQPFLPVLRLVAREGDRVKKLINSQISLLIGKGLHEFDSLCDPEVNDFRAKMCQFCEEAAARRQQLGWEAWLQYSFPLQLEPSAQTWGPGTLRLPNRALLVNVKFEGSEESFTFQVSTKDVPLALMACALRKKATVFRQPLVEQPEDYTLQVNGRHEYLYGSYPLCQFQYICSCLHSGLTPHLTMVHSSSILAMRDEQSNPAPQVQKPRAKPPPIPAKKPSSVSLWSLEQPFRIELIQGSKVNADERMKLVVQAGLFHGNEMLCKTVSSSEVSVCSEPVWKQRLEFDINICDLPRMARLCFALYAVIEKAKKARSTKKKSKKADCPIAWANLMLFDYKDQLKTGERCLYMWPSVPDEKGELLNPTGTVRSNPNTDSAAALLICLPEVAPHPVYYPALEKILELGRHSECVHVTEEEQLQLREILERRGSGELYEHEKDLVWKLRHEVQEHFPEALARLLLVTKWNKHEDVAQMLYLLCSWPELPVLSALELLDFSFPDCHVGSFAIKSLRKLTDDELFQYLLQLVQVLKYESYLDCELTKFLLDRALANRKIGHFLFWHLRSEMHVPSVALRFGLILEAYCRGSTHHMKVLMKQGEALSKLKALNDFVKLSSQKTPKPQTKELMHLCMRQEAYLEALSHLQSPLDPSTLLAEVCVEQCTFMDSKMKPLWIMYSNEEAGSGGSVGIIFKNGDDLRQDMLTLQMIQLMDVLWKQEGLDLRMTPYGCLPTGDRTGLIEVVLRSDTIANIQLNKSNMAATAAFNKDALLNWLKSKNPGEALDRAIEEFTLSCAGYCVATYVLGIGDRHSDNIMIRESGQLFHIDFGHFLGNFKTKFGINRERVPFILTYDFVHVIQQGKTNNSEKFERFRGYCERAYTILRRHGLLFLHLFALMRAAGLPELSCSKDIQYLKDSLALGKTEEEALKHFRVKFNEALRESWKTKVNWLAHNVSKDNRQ
Sequence of PI3Kδ (p110δ/p85α) (P27986 whole entry partner): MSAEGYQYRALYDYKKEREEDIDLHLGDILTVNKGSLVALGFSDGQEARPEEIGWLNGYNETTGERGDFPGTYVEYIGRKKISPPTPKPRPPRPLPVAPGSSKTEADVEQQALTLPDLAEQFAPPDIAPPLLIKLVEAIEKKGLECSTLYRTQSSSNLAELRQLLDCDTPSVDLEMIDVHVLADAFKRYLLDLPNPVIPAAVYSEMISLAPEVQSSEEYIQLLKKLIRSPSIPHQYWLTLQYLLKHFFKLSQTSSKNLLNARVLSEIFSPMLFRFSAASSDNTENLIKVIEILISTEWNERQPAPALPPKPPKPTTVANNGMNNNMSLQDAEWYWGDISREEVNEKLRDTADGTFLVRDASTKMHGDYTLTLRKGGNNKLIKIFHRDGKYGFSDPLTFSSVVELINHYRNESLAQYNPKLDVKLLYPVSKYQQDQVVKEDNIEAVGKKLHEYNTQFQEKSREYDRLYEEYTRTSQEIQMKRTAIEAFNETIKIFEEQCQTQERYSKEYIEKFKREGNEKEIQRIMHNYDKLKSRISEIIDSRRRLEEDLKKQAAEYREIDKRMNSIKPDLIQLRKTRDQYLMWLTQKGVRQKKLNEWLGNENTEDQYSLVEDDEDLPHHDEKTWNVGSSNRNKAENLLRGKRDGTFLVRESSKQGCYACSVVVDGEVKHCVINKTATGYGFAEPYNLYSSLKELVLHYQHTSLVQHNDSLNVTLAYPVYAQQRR

Row | Compound | IC50
1 | COc1c(C(C)n2nc(C)c3c(N)ncnc32)cc(Cl)c(C)c1-c1ccnc(C(=O)N(C)C)c1 (stereo not drawn) [Example 16, 4-{3-[1-(4-Amino-3-methyl-1H-pyrazolo[3,4-d]pyrimidin-1-yl)ethyl]-5-chloro-2-methoxy-6-methylphenyl}-N,N-dimethylpyridine-2-carboxamide] | < 10 nM
2 | COc1c(C(C)n2nc(C)c3c(N)ncnc32)cc(Cl)c(C)c1-c1ccc(C(=O)NCCO)nc1 (stereo not drawn) [Example 23, 5-(3-(1-(4-amino-3-methyl-1H-pyrazolo[3,4-d]pyrimidin-1-yl)ethyl)-5-chloro-2-methoxy-6-methylphenyl)-N-(2-hydroxyethyl)picolinamide trifluoroacetate] | < 10 nM
3 | CCOc1c(C(C)n2nc(-c3cnn(CCO)c3)c3c(N)ncnc32)cc(Cl)c(C)c1-c1ccc(C(=O)N(C)C)nc1 (stereo not drawn) [Example 52, 5-[3-(1-{4-amino-3-[1-(2-hydroxyethyl)-1H-pyrazol-4-yl]-1H-pyrazolo[3,4-d]pyrimidin-1-yl}ethyl)-5-chloro-2-ethoxy-6-methylphenyl]-N,N-dimethylpyridine-2-carboxamide bis(trifluoroacetate)] | < 10 nM
4 | CCOc1c(C(C)n2nc(-c3cncc(C#N)c3)c3c(N)ncnc32)cc(Cl)c(C)c1-c1ccc(C(=O)N(C)C)nc1 (stereo not drawn) [Example 57, 5-(3-{1-[4-amino-3-(5-cyanopyridin-3-yl)-1H-pyrazolo[3,4-d]pyrimidin-1-yl]ethyl}-5-chloro-2-ethoxy-6-methylphenyl)-N,N-dimethylpyridine-2-carboxamide tris(trifluoroacetate)] | < 10 nM
5 | COc1c(C(C)n2nc(C)c3c(N)ncnc32)cc(Cl)c(F)c1C1CN(C[C@@H](C)O)C1 (stereo partly drawn) [Example 69, (2R)-1-(3-{3-[1-(4-Amino-3-methyl-1H-pyrazolo[3,4-d]pyrimidin-1-yl)ethyl]-5-cyloro-6-fluoro-2-methoxyphenyl}azetidin-1-yl)propan-2-ol] | < 10 nM
6 | COc1c(C(C)n2nc(C)c3c(N)ncnc32)cc(Cl)c(F)c1C1CN(C)C1 (stereo not drawn) [Example 72] | < 10 nM
7 | COc1c(C(C)n2nc(C(F)F)c3c(N)ncnc32)cc(Cl)c(F)c1C1CN(C(C)C)C1 (stereo not drawn) [Example 73, 1-{1-[5-Chloro-4-fluoro-3-(1-isopropylazetidin-3-yl)-2-methoxyphenyl]ethyl}-3-(difluoromethyl)-1H-pyrazolo[3,4-d]pyrimidin-4-amine] | < 10 nM
8 | COc1c(C(C)n2nc(C(F)F)c3c(N)ncnc32)cc(Cl)c(F)c1C1CN(CCO)C1 (stereo not drawn) [Example 74, 2-[3-(3-{1-[4-Amino-3-(difluoromethyl)-1H-pyrazolo[3,4-d]pyrimidin-1-yl]ethyl}-5-chloro-6-fluoro-2-methoxyphenyl)azetidin-1-yl]ethanol] | < 10 nM
9 | COc1c(C(C)n2nc(C(F)F)c3c(N)ncnc32)cc(Cl)c(F)c1C1CN(C[C@H](C)O)C1 (stereo partly drawn) [Example 76, (2S)-1-[3-(3-{1-[4-amino-3-(difluoromethyl)-1H-pyrazolo[3,4-d]pyrimidin-1-yl]ethyl}-5-chloro-6-fluoro-2-methoxyphenyl)azetidin-1-yl]propan-2-ol] | < 10 nM
10 | COc1c(C(C)n2nc(C(F)F)c3c(N)ncnc32)cc(C#N)c(F)c1C1CN(C[C@H](C)O)C1 (stereo partly drawn) [Example 77, 5-(1-(4-Amino-3-(difluoromethyl)-1H-pyrazolo[3,4-d]pyrimidin-1-yl)ethyl)-2-fluoro-3-(1-((S)-2-hydroxypropyl)azetidin-3-yl)-4-methoxybenzonitrile] | < 10 nM
11 | CCOc1c(C(C)n2nc(C#C[C@@H](C)O)c3c(N)ncnc32)cc(Cl)c(C)c1-c1ccc(C(=O)N(C)C)nc1 (stereo partly drawn) [Example 79, 5-[3-(1-{4-Amino-3-[(3R)-3-hydroxybut-1-yn-1-yl]-1H-pyrazolo[3,4-d]pyrimidin-1-yl}ethyl)-5-chloro-2-ethoxy-6-methylphenyl]-N,N-dimethylpyridine-2-carboxamide bis(trifluoroacetate)] | < 10 nM
12 | CCOc1c(C(C)n2nc(C#C[C@H](C)O)c3c(N)ncnc32)cc(Cl)c(C)c1-c1ccc(C(=O)N(C)C)nc1 (stereo partly drawn) [Example 80, 5-[3-(1-{4-Amino-3-[(3S)-3-hydroxybut-1-yn-1-yl]-1H-pyrazolo[3,4-d]pyrimidin-1-yl}ethyl)-5-chloro-2-ethoxy-6-methylphenyl]-N,N-dimethylpyridine-2-carboxamide bis(trifluoroacetate)] | < 10 nM
13 | CCOc1c(C(C)n2nc(C)c3c(N)ncnc32)cc(Cl)c(C)c1C1CN(C(C)C)C1 (stereo not drawn) [Example 94, 1-{1-[5-Chloro-2-ethoxy-3-(1-isopropylazetidin-3-yl)-4-methylphenyl]ethyl}-3-methyl-1H-pyrazolo[3,4-d]pyrimidin-4-amine bis(trifluoroacetate)] | < 10 nM
14 | CCOc1c(C(C)n2nc(C)c3c(N)ncnc32)cc(Cl)c(C)c1C1CN(C[C@@H](C)O)C1 (stereo partly drawn) [Example 97, (2R)-1-(3-{3-[1-(4-Amino-3-methyl-1H-pyrazolo[3,4-d]pyrimidin-1-yl)ethyl]-5-chloro-2-ethoxy-6-methylphenyl}azetidin-1-yl)propan-2-ol] | < 10 nM
15 | CCOc1c(C(C)n2nc(C)c3c(N)ncnc32)cc(Cl)c(C)c1C1CN(C(=O)[C@H](C)O)C1 (stereo partly drawn) [Example 99, (2S)-1-(3-{3-[1-(4-Amino-3-methyl-1H-pyrazolo[3,4-d]pyrimidin-1-yl)ethyl]-5-chloro-2-ethoxy-6-methylphenyl}azetidin-1-yl)-1-oxopropan-2-ol trifluoroacetate] | < 10 nM
16 | CCOc1c(C(C)n2nc(C)c3c(N)ncnc32)cc(Cl)c(C)c1C1CN(C(=O)[C@@H](C)O)C1 (stereo partly drawn) [Example 100, (2R)-1-(3-{3-[1-(4-Amino-3-methyl-1H-pyrazolo[3,4-d]pyrimidin-1-yl)ethyl]-5-chloro-2-ethoxy-6-methylphenyl}azetidin-1-yl)-1-oxopropan-2-ol] | < 10 nM
17 | CCOc1c(C(C)n2nc(C)c3c(N)ncnc32)cc(Cl)c(C)c1C1CN(C(=O)c2cnn(C)c2)C1 (stereo not drawn) [Example 101, 1-[1-(5-Chloro-2-ethoxy-4-methyl-3-{1-[(1-methyl-1H-pyrazol-4-yl)carbonyl]azetidin-3-yl}phenyl)ethyl]-3-methyl-1H-pyrazolo[3,4-d]pyrimidin-4-amine trifluoroacetate] | < 10 nM
18 | COc1c(C(C)n2nc(C)c3c(N)ncnc32)cc(Cl)c(C)c1C1CN(C(C)C#N)C1 (stereo not drawn) [Example 106, 2-(3-{3-[1-(4-Amino-3-methyl-1H-pyrazolo[3,4-d]pyrimidin-1-yl)ethyl]-5-chloro-2-methoxy-6-methylphenyl}azetidin-1-yl)propanenitrile] | < 10 nM
19 | COc1c(C(C)n2nc(C)c3c(N)ncnc32)cc(Cl)c(C)c1C1CN(C2CCOC2)C1 (stereo not drawn) [Example 107, 1-(1-{5-Chloro-2-methoxy-4-methyl-3-[1-(tetrahydrofuran-3-yl)azetidin-3-yl]phenyl}ethyl)-3-methyl-1H-pyrazolo[3,4-d]pyrimidin-4-amine] | < 10 nM
20 | CNC(=O)[C@@H](C)N1CC(c2c(C)c(Cl)cc(C(C)n3nc(C)c4c(N)ncnc43)c2OC)C1 (stereo partly drawn) [Example 110, (2R)-2-(3-{3-[1-(4-Amino-3-methyl-1H-pyrazolo[3,4-d]pyrimidin-1-yl)ethyl]-5-chloro-2-methoxy-6-methylphenyl}azetidin-1-yl)-N-methylpropanamide trifluoroacetate] | < 10 nM
21 | COc1c(C(C)n2nc(C)c3c(N)ncnc32)cc(Cl)c(C)c1C1CN(C(CO)C(F)(F)F)C1 (stereo not drawn) [Example 113, 2-(3-{3-[1-(4-Amino-3-methyl-1H-pyrazolo[3,4-d]pyrimidin-1-yl)ethyl]-5-chloro-2-methoxy-6-methylphenyl}azetidin-1-yl)-3,3,3-trifluoropropan-1-ol] | < 10 nM
22 | COc1c(C(C)n2nc(-c3cn[nH]c3)c3c(N)ncnc32)cc(Cl)c(C)c1C1CN(CC#N)C1 (stereo not drawn) [Example 126, [3-(3-{1-[4-Amino-3-(1H-pyrazol-4-yl)-1H-pyrazolo[3,4-d]pyrimidin-1-yl]ethyl}-5-chloro-2-methoxy-6-methylphenyl)azetidin-1-yl]acetonitrile] | < 10 nM
23 | COc1c(C(C)n2nc(C(F)F)c3c(N)ncnc32)cc(C#N)c(C)c1C1CN(C[C@H](C)O)C1 (stereo partly drawn) [Example 131, 5-{1-[4-Amino-3-(difluoromethyl)-1H-pyrazolo[3,4-d]pyrimidin-1-yl]ethyl}-3-{1-[(2S)-2-hydroxypropyl]azetidin-3-yl}-4-methoxy-2-methylbenzonitrile] | < 10 nM
24 | COc1c(C(C)n2nc(C(F)F)c3c(N)ncnc32)cc(C#N)c(C)c1C1CN(C[C@@H](C)O)C1 (stereo partly drawn) [Example 132, 5-{1-[4-Amino-3-(difluoromethyl)-1H-pyrazolo[3,4-d]pyrimidin-1-yl]ethyl}-3-{1-[(2R)-2-hydroxypropyl]azetidin-3-yl}-4-methoxy-2-methylbenzonitrile] | < 10 nM
25 | CNC(=O)[C@H](C)N1CC(c2c(C)c(C#N)cc(C(C)n3nc(C(F)F)c4c(N)ncnc43)c2OC)C1 (stereo partly drawn) [Example 134, (2S)-2-[3-(3-{1-[4-Amino-3-(difluoromethyl)-1H-pyrazolo[3,4-d]pyrimidin-1-yl]ethyl}-5-cyano-2-methoxy-6-methylphenyl)azetidin-1-yl]-N-methylpropanamide] | < 10 nM
26 | CNC(=O)[C@@H](C)N1CC(c2c(C)c(C#N)cc(C(C)n3nc(C(F)F)c4c(N)ncnc43)c2OC)C1 (stereo partly drawn) [Example 135, (2R)-2-[3-(3-{1-[4-Amino-3-(difluoromethyl)-1H-pyrazolo[3,4-d]pyrimidin-1-yl]ethyl}-5-cyano-2-methoxy-6-methylphenyl)azetidin-1-yl]-N-methylpropanamide] | < 10 nM
27 | CCOc1c(C(C)n2nc(C)c3c(N)ncnc32)cc(Cl)c(F)c1C1CN(C[C@H](C)O)C1 (stereo partly drawn) [Example 143, (2S)-1-(3-{3-[1-(4-Amino-3-methyl-1H-pyrazolo[3,4-d]pyrimidin-1-yl)ethyl]-5-chloro-2-ethoxy-6-fluorophenyl}azetidin-1-yl)propan-2-ol] | < 10 nM

— US10092570B2 (Incyte Corporation, priority 2011, dated 2018)
